Test results taken from PubChem BioAssay (NCI).
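Tested at 5 concentrations; 48 h exposure; 96-well plates; endpoints linearly interpolated, else capped at highest concentration. The concentration for full growth arrest is given as TGI.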

Experiments:
Assay in all cases: NCI anticancer screen, dose series, 48 h
A498 renal = tested on: A498 renal
HL-60(TB) leukemia = tested on: HL-60(TB) leukemia
TK-10 renal = tested on: TK-10 renal
IGROV1 ovarian = tested on: IGROV1 ovarian
HOP-62 NSCLC = tested on: HOP-62 NSCLC
EKVX NSCLC = tested on: EKVX NSCLC
K-562 leukemia = tested on: K-562 leukemia
ACHN renal = tested on: ACHN renal
UO-31 renal = tested on: UO-31 renal
SNB-75 CNS = tested on: SNB-75 CNS
NCI-H23 lung = tested on: NCI-H23 lung
MALME-3M melanoma = tested on: MALME-3M melanoma
SW-620 colon = tested on: SW-620 colon
LXFL 529 NSCLC = tested on: LXFL 529 NSCLC
A549 NSCLC = tested on: A549 NSCLC
RXF-631 renal = tested on: RXF-631 renal
SK-MEL-5 melanoma = tested on: SK-MEL-5 melanoma
DLD-1 colon = tested on: DLD-1 colon
HOP-92 NSCLC = tested on: HOP-92 NSCLC
SN12C renal = tested on: SN12C renal
HCT-116 colon = tested on: HCT-116 colon
SNB-78 CNS = tested on: SNB-78 CNS
DMS 114 small cell lung = tested on: DMS 114 small cell lung
UACC-257 melanoma = tested on: UACC-257 melanoma
OVCAR-4 ovarian = tested on: OVCAR-4 ovarian
M14 melanoma = tested on: M14 melanoma
HOP-18 NSCLC = tested on: HOP-18 NSCLC
CCRF-CEM leukemia = tested on: CCRF-CEM leukemia
SF-268 CNS = tested on: SF-268 CNS
SK-MEL-28 melanoma = tested on: SK-MEL-28 melanoma
U251 CNS = tested on: U251 CNS
COLO 205 colon = tested on: COLO 205 colon
SK-MEL-2 melanoma = tested on: SK-MEL-2 melanoma
SF-539 CNS = tested on: SF-539 CNS
HT29 colon = tested on: HT29 colon
OVCAR-8 ovarian = tested on: OVCAR-8 ovarian
LOX IMVI melanoma = tested on: LOX IMVI melanoma
RPMI-8226 leukemia = tested on: RPMI-8226 leukemia
SR leukemia = tested on: SR leukemia
MOLT-4 leukemia = tested on: MOLT-4 leukemia
SK-OV-3 ovarian = tested on: SK-OV-3 ovarian
NCI-H460 lung = tested on: NCI-H460 lung
SF-295 CNS = tested on: SF-295 CNS
HCT-15 colon = tested on: HCT-15 colon
NCI-H226 lung = tested on: NCI-H226 lung
KM12 colon = tested on: KM12 colon
HCC-2998 colon = tested on: HCC-2998 colon
UACC-62 melanoma = tested on: UACC-62 melanoma
XF 498 CNS = tested on: XF 498 CNS
OVCAR-5 ovarian = tested on: OVCAR-5 ovarian
NCI-H522 lung = tested on: NCI-H522 lung
786-0 renal = tested on: 786-0 renal
CAKI-1 renal = tested on: CAKI-1 renal
SNB-19 CNS = tested on: SNB-19 CNS
KM20L2 colon = tested on: KM20L2 colon
OVCAR-3 ovarian = tested on: OVCAR-3 ovarian
M19-MEL melanoma = tested on: M19-MEL melanoma
DMS 273 small cell lung = tested on: DMS 273 small cell lung
RXF 393 renal = tested on: RXF 393 renal

CCOC(=O)/C(=C/c1ccc(C(F)(F)F)cc1)N(CC)CC
TGI (A498 renal): > 100 µM | TGI (HL-60(TB) leukemia): > 100 µM | TGI (TK-10 renal): > 100 µM | TGI (IGROV1 ovarian): > 100 µM | TGI (HOP-62 NSCLC): > 100 µM | TGI (EKVX NSCLC): > 100 µM | TGI (K-562 leukemia): > 100 µM | TGI (ACHN renal): > 100 µM | TGI (UO-31 renal): > 100 µM | TGI (SNB-75 CNS): > 100 µM | TGI (NCI-H23 lung): > 100 µM | TGI (MALME-3M melanoma): > 100 µM | TGI (SW-620 colon): > 100 µM | TGI (LXFL 529 NSCLC): > 100 µM | TGI (A549 NSCLC): > 100 µM | TGI (RXF-631 renal): > 100 µM | TGI (SK-MEL-5 melanoma): > 100 µM | TGI (DLD-1 colon): > 100 µM | TGI (HOP-92 NSCLC): > 100 µM | TGI (SN12C renal): > 100 µM | TGI (HCT-116 colon): > 100 µM | TGI (SNB-78 CNS): > 100 µM | TGI (DMS 114 small cell lung): > 100 µM | TGI (UACC-257 melanoma): > 100 µM | TGI (OVCAR-4 ovarian): > 100 µM | TGI (M14 melanoma): > 100 µM | TGI (HOP-18 NSCLC): > 100 µM | TGI (CCRF-CEM leukemia): > 100 µM | TGI (SF-268 CNS): > 100 µM | TGI (SK-MEL-28 melanoma): > 100 µM | TGI (U251 CNS): > 100 µM | TGI (COLO 205 colon): > 100 µM | TGI (SK-MEL-2 melanoma): > 100 µM | TGI (SF-539 CNS): > 100 µM | TGI (HT29 colon): > 100 µM | TGI (OVCAR-8 ovarian): > 100 µM | TGI (LOX IMVI melanoma): > 100 µM | TGI (RPMI-8226 leukemia): > 100 µM | TGI (SR leukemia): > 100 µM | TGI (MOLT-4 leukemia): > 100 µM | TGI (SK-OV-3 ovarian): > 100 µM | TGI (NCI-H460 lung): > 100 µM | TGI (SF-295 CNS): > 100 µM | TGI (HCT-15 colon): > 100 µM | TGI (NCI-H226 lung): > 100 µM | TGI (KM12 colon): > 100 µM | TGI (HCC-2998 colon): > 100 µM | TGI (UACC-62 melanoma): > 100 µM | TGI (XF 498 CNS): > 100 µM | TGI (OVCAR-5 ovarian): > 100 µM | TGI (NCI-H522 lung): > 100 µM | TGI (786-0 renal): > 100 µM | TGI (CAKI-1 renal): > 100 µM

O=c1oc2c3ccc4ccccc4c3n(CCCN3CCCCC3)c2c2ccccc12
TGI (SNB-19 CNS): > 100 µM | TGI (HL-60(TB) leukemia): 42.9 µM | TGI (TK-10 renal): > 100 µM | TGI (IGROV1 ovarian): > 100 µM | TGI (HOP-62 NSCLC): > 100 µM | TGI (EKVX NSCLC): > 100 µM | TGI (K-562 leukemia): 63.9 µM | TGI (ACHN renal): > 100 µM | TGI (UO-31 renal): > 100 µM | TGI (SNB-75 CNS): > 100 µM | TGI (MALME-3M melanoma): 41 µM | TGI (SW-620 colon): > 100 µM | TGI (LXFL 529 NSCLC): > 100 µM | TGI (A549 NSCLC): > 100 µM | TGI (RXF-631 renal): > 100 µM | TGI (DLD-1 colon): > 100 µM | TGI (HOP-92 NSCLC): > 100 µM | TGI (HCT-116 colon): > 100 µM | TGI (KM20L2 colon): > 100 µM | TGI (DMS 114 small cell lung): > 100 µM | TGI (UACC-257 melanoma): > 100 µM | TGI (OVCAR-3 ovarian): > 100 µM | TGI (OVCAR-4 ovarian): > 100 µM | TGI (M14 melanoma): 24.2 µM | TGI (HOP-18 NSCLC): > 100 µM | TGI (CCRF-CEM leukemia): > 100 µM | TGI (SF-268 CNS): > 100 µM | TGI (SK-MEL-28 melanoma): 50.3 µM | TGI (COLO 205 colon): > 100 µM | TGI (M19-MEL melanoma): > 100 µM | TGI (SK-MEL-2 melanoma): > 100 µM | TGI (SF-539 CNS): 40.8 µM | TGI (HT29 colon): > 100 µM | TGI (OVCAR-8 ovarian): > 100 µM | TGI (LOX IMVI melanoma): > 100 µM | TGI (RPMI-8226 leukemia): > 100 µM | TGI (SR leukemia): > 100 µM | TGI (MOLT-4 leukemia): > 100 µM | TGI (SK-OV-3 ovarian): > 100 µM | TGI (NCI-H460 lung): > 100 µM | TGI (SF-295 CNS): > 100 µM | TGI (HCT-15 colon): > 100 µM | TGI (KM12 colon): > 100 µM | TGI (HCC-2998 colon): > 100 µM | TGI (UACC-62 melanoma): > 100 µM | TGI (XF 498 CNS): > 100 µM | TGI (OVCAR-5 ovarian): > 100 µM | TGI (NCI-H522 lung): > 100 µM | TGI (786-0 renal): 37.2 µM | TGI (CAKI-1 renal): > 100 µM

O=S(=O)(SCCCCSS(=O)(=O)c1ccc(Cl)cc1)c1ccc(Cl)cc1
TGI (A498 renal): 32.9 µM | TGI (SNB-19 CNS): 28 µM | TGI (HL-60(TB) leukemia): 8.85 µM | TGI (TK-10 renal): 47.7 µM | TGI (IGROV1 ovarian): 19.4 µM | TGI (HOP-62 NSCLC): 36.6 µM | TGI (K-562 leukemia): 48.8 µM | TGI (ACHN renal): 31 µM | TGI (UO-31 renal): 21.1 µM | TGI (SNB-75 CNS): 33.3 µM | TGI (NCI-H23 lung): 22.9 µM | TGI (MALME-3M melanoma): 32.4 µM | TGI (SW-620 colon): 23 µM | TGI (LXFL 529 NSCLC): 24.7 µM | TGI (A549 NSCLC): 37.2 µM | TGI (RXF-631 renal): 21.5 µM | TGI (SK-MEL-5 melanoma): 30.5 µM | TGI (DLD-1 colon): 27.5 µM | TGI (HOP-92 NSCLC): 21 µM | TGI (SN12C renal): 22.5 µM | TGI (HCT-116 colon): 24.3 µM | TGI (KM20L2 colon): 33.8 µM | TGI (SNB-78 CNS): 56.4 µM | TGI (DMS 114 small cell lung): 20.7 µM | TGI (UACC-257 melanoma): 37.2 µM | TGI (OVCAR-3 ovarian): 28 µM | TGI (OVCAR-4 ovarian): 33.5 µM | TGI (M14 melanoma): 27.7 µM | TGI (HOP-18 NSCLC): 32.9 µM | TGI (CCRF-CEM leukemia): 4.5 µM | TGI (SF-268 CNS): 29.1 µM | TGI (SK-MEL-28 melanoma): 34.3 µM | TGI (U251 CNS): 21 µM | TGI (COLO 205 colon): 28.2 µM | TGI (M19-MEL melanoma): 30.8 µM | TGI (SK-MEL-2 melanoma): 33.2 µM | TGI (SF-539 CNS): 25 µM | TGI (HT29 colon): 32.1 µM | TGI (OVCAR-8 ovarian): 25.5 µM | TGI (DMS 273 small cell lung): 23.3 µM | TGI (LOX IMVI melanoma): 11.3 µM | TGI (RPMI-8226 leukemia): 28.5 µM | TGI (MOLT-4 leukemia): 10.1 µM | TGI (SK-OV-3 ovarian): 30.1 µM | TGI (NCI-H460 lung): 29.5 µM | TGI (SF-295 CNS): 15.2 µM | TGI (HCT-15 colon): 27.4 µM | TGI (RXF 393 renal): 34.2 µM | TGI (KM12 colon): 22.8 µM | TGI (HCC-2998 colon): 34.1 µM | TGI (UACC-62 melanoma): 28.9 µM | TGI (OVCAR-5 ovarian): 30.4 µM | TGI (NCI-H522 lung): 17 µM | TGI (786-0 renal): 21.4 µM | TGI (CAKI-1 renal): 27.8 µM
